In the test the test system is P388 leukemia ip, CD2F1 mice, survival T/C. The test is described as follows: NCI In Vivo Anticancer Drug Screen. Data for tumor model P388 Leukemia (intraperitoneal) in CD2F1 (CDF1) mice. The conditions noted are these: endpoint: median survival time, higher = longer survival. A digest of the protocol: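 Mice carrying the transplanted tumor received test compound or vehicle. Survival was recorded in each group, and the value is the treated-group measurement divided by that of the vehicle-treated control group.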

Setting [1] is: dose: 50.0 mg/kg/injection, schedule: Q01DX009 (ip), vehicle: saline with Tween-80.
The mark [2] stands for this setting: dose: 100.0 mg/kg/injection, schedule: Q01DX009 (ip), vehicle: saline with Tween-80.
Setting [3] is: dose: 200.0 mg/kg/injection, schedule: Q01DX009 (ip), vehicle: saline with Tween-80.
[4] abbreviates: dose: 6.25 mg/kg/injection, schedule: Q01DX009 (ip), vehicle: saline with Tween-80.
[5] abbreviates: dose: 25.0 mg/kg/injection, schedule: Q01DX009 (ip), vehicle: saline with Tween-80.
[6] abbreviates: dose: 60.0 mg/kg/injection, schedule: Q01DX005 (ip), vehicle: Klucel (hydroxypropylcellulose) (HPC).
Setting [7] is: dose: 120.0 mg/kg/injection, schedule: Q01DX005 (ip), vehicle: Klucel (hydroxypropylcellulose) (HPC).
The mark [8] stands for this setting: dose: 240.0 mg/kg/injection, schedule: Q01DX005 (ip), vehicle: Klucel (hydroxypropylcellulose) (HPC).
[9] abbreviates: dose: 12.5 mg/kg/injection, schedule: Q01DX009 (ip), vehicle: saline with Tween-80.
Where [10] appears, read: dose: 50.0 mg/kg/injection, schedule: Q01DX009 (ip), vehicle: saline.
Where [11] appears, read: dose: 60.0 mg/kg/injection, schedule: Q01DX005 (ip), vehicle: saline with Tween-80.
[12] abbreviates: dose: 120.0 mg/kg/injection, schedule: Q01DX005 (ip), vehicle: saline with Tween-80.
Setting [13] is: dose: 240.0 mg/kg/injection, schedule: Q01DX005 (ip), vehicle: saline with Tween-80.

“And” between values parts separate entries of the source, which are not always exact repeats. Equal values may be shown once. Inconclusive results and toxic doses are left out.

As for `COc1ccccc1N1C(=S)N(c2cccc(Cl)c2Cl)C(=O)C(N=Nc2cccc(Cl)c2Cl)C1O` (centres undefined), the T/C is, setting by setting: (dose: 100.0 mg/kg/injection, schedule: Q04DX003 (ip), vehicle: Klucel (hydroxypropylcellulose) (HPC)) 104 % of control; (dose: 200.0 mg/kg/injection, schedule: Q04DX003 (ip), vehicle: Klucel (hydroxypropylcellulose) (HPC)) 104 % of control; (dose: 400.0 mg/kg/injection, schedule: Q04DX003 (ip), vehicle: Klucel (hydroxypropylcellulose) (HPC)) 98 % of control.
As for `Cc1cc(-c2cc(C)nc(N)n2)nc(N)n1`, the T/C was 100 % of control (dose: 60.0 mg/kg/injection, schedule: Q01DX005 (ip), vehicle: saline); 100 % of control (dose: 120.0 mg/kg/injection, schedule: Q01DX005 (ip), vehicle: saline); 108 % of control (dose: 240.0 mg/kg/injection, schedule: Q01DX005 (ip), vehicle: saline).
For the molecule `CCCCCCCCCC(O)(CSc1ccccc1)CSc1ccccc1`, the T/C is, setting by setting: under setting [1], 99 % of control; under setting [2], 100 % of control; under setting [3], 114 % of control.
Regarding `C#CCOc1ccccc1/C(Cl)=N/Nc1ccc([N+](=O)[O-])cc1[N+](=O)[O-]`, the T/C reads like this: under setting [4], 97 % of control; under setting [5], 90 % of control.
Consider `O=C(O)c1c(-c2ccccc2)sc2ccccc2c1=O`, for which the T/C runs as follows: (dose: 100.0 mg/kg/injection, schedule: Q01DX001 (ip), vehicle: saline with Tween-80) 99 % of control; (dose: 200.0 mg/kg/injection, schedule: Q01DX001 (ip), vehicle: saline with Tween-80) 99 % of control; (dose: 400.0 mg/kg/injection, schedule: Q01DX001 (ip), vehicle: saline with Tween-80) 99 % of control.
With `CC(C)=CCC(O)/C(C)=C/CC/C(=C/CC/C(C)=C/CO)CO` (centres undefined), the T/C reads like this: (dose: 3.88 mg/kg/injection, schedule: Q01DX005 (ip), vehicle: Klucel (hydroxypropylcellulose) (HPC)) 93 % of control; (dose: 7.75 mg/kg/injection, schedule: Q01DX005 (ip), vehicle: Klucel (hydroxypropylcellulose) (HPC)) 100 % of control; (dose: 15.5 mg/kg/injection, schedule: Q01DX005 (ip), vehicle: Klucel (hydroxypropylcellulose) (HPC)) 102 % of control; (dose: 31.0 mg/kg/injection, schedule: Q01DX005 (ip), vehicle: Klucel (hydroxypropylcellulose) (HPC)) 102 % of control.
Regarding `Cc1cc(-n2nnc3ccccc3c2=O)on1`, the T/C under setting [6] was 114 % of control, the T/C under setting [7] was 101 % of control and the T/C under setting [8] was 119 % of control.
In the case of `O=[N+]([O-])c1nc2ccccc2[nH]1`, the T/C is, setting by setting: under setting [4], 101 % of control; under setting [9], 101 % of control; under setting [5], 111 % of control; under setting [1], 108 % of control.
Consider `[Cl][Pd]([Cl])([Cl])[Cl]`, for which the T/C (dose: 12.5 mg/kg/injection, schedule: Q01DX009 (ip), vehicle: saline) is 86 % of control; the T/C (dose: 25.0 mg/kg/injection, schedule: Q01DX009 (ip), vehicle: saline) was 96 % of control; the T/C under setting [10] is 95 % of control.
`Cc1c2ccncc2c(C)c2c1sc1ccccc12`: the T/C (dose: 12.5 mg/kg/injection, schedule: Q04DX003 (ip), vehicle: alkali diluted with water) was 121 % of control; the T/C (dose: 200.0 mg/kg/injection, schedule: Q04DX003 (ip), vehicle: alkali diluted with water) was 162 % of control; the T/C (dose: 200.0 mg/kg/injection, schedule: Q04DX003 (ip), vehicle: distilled water + Tween-80) is 155 % of control; the T/C (dose: 400.0 mg/kg/injection, schedule: Q04DX003 (ip), vehicle: distilled water + Tween-80) was 117 % of control.
As to `C/C=C1/CN2C3C[C@@]45c6cc(OC)c(OC)cc6NC4(O3)C2CC1C5C(=O)OC` (some centres undefined), the T/C is 102 % of control (dose: 5.25 mg/kg/injection, schedule: Q01DX005 (ip), vehicle: Klucel (hydroxypropylcellulose) (HPC)); 102 % of control (dose: 10.5 mg/kg/injection, schedule: Q01DX005 (ip), vehicle: Klucel (hydroxypropylcellulose) (HPC)); 98 % of control (dose: 21.0 mg/kg/injection, schedule: Q01DX005 (ip), vehicle: Klucel (hydroxypropylcellulose) (HPC)); 99 % of control (dose: 42.0 mg/kg/injection, schedule: Q01DX005 (ip), vehicle: Klucel (hydroxypropylcellulose) (HPC)).
For `CCOC(=O)c1[nH]c(=S)sc1N`, the T/C under setting [11] is 99 % of control, the T/C under setting [12] is 92 % of control and the T/C under setting [13] was 90 % of control.
Regarding `CC(N)(CSCc1ccccc1)C(=O)O` (centres undefined), the T/C by setting is: (dose: 25.0 mg/kg/injection, schedule: Q01DX009 (ip), vehicle: Klucel (hydroxypropylcellulose) (HPC)) 100 % of control; (dose: 50.0 mg/kg/injection, schedule: Q01DX009 (ip), vehicle: Klucel (hydroxypropylcellulose) (HPC)) 103 % of control; (dose: 100.0 mg/kg/injection, schedule: Q01DX009 (ip), vehicle: Klucel (hydroxypropylcellulose) (HPC)) 107 % of control.
In the case of `O=C1CC(C2CCCCC2)C(=O)c2cc3cccnc3c(O)c21` (centres undefined), the T/C is, setting by setting: (dose: 50.0 mg/kg/injection, schedule: Q01DX005 (ip), vehicle: saline with Tween-80) 101 % of control; (dose: 100.0 mg/kg/injection, schedule: Q01DX005 (ip), vehicle: saline with Tween-80) 99 % of control; (dose: 200.0 mg/kg/injection, schedule: Q01DX005 (ip), vehicle: saline with Tween-80) 93 % of control.
Take `Cc1ccc(S(=O)(=O)/C=C2\COc3ccccc3C2=O)cc1`: the T/C is, setting by setting: (dose: 100.0 mg/kg/injection, schedule: Q04DX002 (ip), vehicle: saline) 100 % of control; (dose: 200.0 mg/kg/injection, schedule: Q04DX002 (ip), vehicle: saline) 100 % of control; (dose: 400.0 mg/kg/injection, schedule: Q04DX002 (ip), vehicle: saline) 97 % of control.
Turning to `COc1cc2c(cc1OC)C13CC(=O)N(C(C)=O)N1CCCN3C2=O` (centres undefined), the T/C is 106 % of control (dose: 30.0 mg/kg/injection, schedule: Q01DX005 (ip), vehicle: Klucel (hydroxypropylcellulose) (HPC)); 97 % of control under setting [6]; 91 % of control and 97 % of control under setting [7]; 88 % of control under setting [8].
With `O=c1c(Cl)cc(Cl)cn1S(=O)(=O)c1ccc([N+](=O)[O-])cc1`, the T/C under setting [5] was 106 % of control; the T/C under setting [1] is 105 % of control; the T/C under setting [2] was 100 % of control and 104 % of control; the T/C under setting [3] is 104 % of control and 89 % of control; the T/C (dose: 400.0 mg/kg/injection, schedule: Q01DX009 (ip), vehicle: saline with Tween-80) was 89 % of control.
On to `Cc1c2ccccc2cc2c1ccc1ccccc12`, for which the T/C was 116 % of control (dose: 17.5 mg/kg/injection, schedule: Q01DX009 (ip), vehicle: saline with Tween-80); 100 % of control (dose: 25.0 mg/kg/injection, schedule: Q04DX003 (ip), vehicle: other); 122 % of control (dose: 35.0 mg/kg/injection, schedule: Q01DX009 (ip), vehicle: saline with Tween-80); 100 % of control (dose: 50.0 mg/kg/injection, schedule: Q04DX003 (ip), vehicle: other); 152 % of control (dose: 70.0 mg/kg/injection, schedule: Q01DX009 (ip), vehicle: saline with Tween-80); 102 % of control (dose: 100.0 mg/kg/injection, schedule: Q04DX003 (ip), vehicle: other). Moreover, the T/C reads like this: (dose: 200.0 mg/kg/injection, schedule: Q04DX003 (ip), vehicle: other) 102 % of control; (dose: 400.0 mg/kg/injection, schedule: Q04DX003 (ip), vehicle: other) 107 % of control.
In the case of `OC(CN1CCOCC1)c1ccccn1` (centres undefined), the T/C by setting is: under setting [10], 95 % of control; (dose: 100.0 mg/kg/injection, schedule: Q01DX009 (ip), vehicle: saline) 92 % of control; (dose: 200.0 mg/kg/injection, schedule: Q01DX009 (ip), vehicle: saline) 92 % of control.
Consider `COC(=O)c1cc(-c2ccc(Cl)c(Cl)c2)[nH]c(=O)c1C#N`, for which the T/C under setting [11] is 100 % of control, the T/C under setting [12] is 103 % of control and the T/C under setting [13] is 94 % of control.
Taken in the same sequence, the figures for `Fc1cccc(F)c1C(Nc1nncs1)Nc1nncs1` were 108 % of control, 109 % of control and 160 % of control.
With `CN(C)C1CS(=O)(=O)C1c1ccccc1` (centres undefined), the T/C reads like this: under setting [9], 100 % of control and 110 % of control; under setting [5], 110 % of control and 95 % of control; under setting [1], 112 % of control and 95 % of control; under setting [2], 102 % of control and 103 % of control and 97 % of control; under setting [3], 102 % of control.

The values are drawn from PubChem BioAssay AID330 (DTP/NCI, 2004).
